Reference: ChEMBL document CHEMBL1127331, “Pyridobenzoxazepine and pyridobenzothiazepine derivatives as potential central nervous system agents: synthesis and neurochemical study” (J Med Chem, 1994)
pKi: −log10 of the molar value. Blank lines part the entries; values can stand above or below the compound they belong to.

Legend:
[1] = target: D(1A) dopamine receptor (Rattus norvegicus, UniProt P18901)
Description: Binding affinity against dopamine receptor D1

[2] = target: Serotonin 2 (5-HT2) receptor (Rattus norvegicus, UniProt P30994+P08909+P14842)
Description: Binding affinity against serotonin 5-hydroxytryptamine 2 receptor

[3] = target: Muscarinic acetylcholine receptor
Description: Binding affinity against muscarinic (M) receptor

[4] = species on record: Rattus norvegicus; test: animal or person; conditions: sc, read-out: Inhibition
Description: (§1) Inhibitory activity in apomorphine antagonism test at a dose of 20 mg/kg, sc

[5] = species on record: Rattus norvegicus; test: animal or person; conditions: sc
Description: as §1

Sequence of D(1A) dopamine receptor (P18901 whole entry): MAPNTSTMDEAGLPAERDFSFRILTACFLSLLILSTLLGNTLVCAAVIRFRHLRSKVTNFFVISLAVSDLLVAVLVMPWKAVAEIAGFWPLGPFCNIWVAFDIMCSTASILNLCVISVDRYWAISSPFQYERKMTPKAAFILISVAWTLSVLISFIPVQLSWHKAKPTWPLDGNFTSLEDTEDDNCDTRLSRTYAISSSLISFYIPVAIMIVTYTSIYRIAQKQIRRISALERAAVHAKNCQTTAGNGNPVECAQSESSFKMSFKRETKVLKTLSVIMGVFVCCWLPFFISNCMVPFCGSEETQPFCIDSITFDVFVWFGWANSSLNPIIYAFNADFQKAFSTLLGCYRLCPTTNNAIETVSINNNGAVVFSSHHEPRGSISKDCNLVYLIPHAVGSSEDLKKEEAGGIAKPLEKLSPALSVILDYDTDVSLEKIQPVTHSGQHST

pKi [1]: 5.09
-Log Ki [2]: 5.94
-Log Ki [3]: 6.13
SMILES: CN1CCN(C2=Nc3cccnc3Sc3ccccc32)CC1
inhibition in vivo at 20 mg/kg [4]: 0%

-Log Ki [2]: 8.38
SMILES: CN1CCN(C2=Nc3cc(Cl)ccc3Sc3ccccc32)CC1 [ISOCLOTHIAPINE]

-Log Ki [2]: 4.65
-Log Ki [3]: 6.07
SMILES: CN1CCN(C2=Nc3cccnc3Oc3ccccc32)CC1
inhibition in vivo at 20 mg/kg [4]: 0%

pKi [1]: 6.52
-Log Ki [2]: 7.19
-Log Ki [3]: 5.65
SMILES: CN1CCN(C2=Nc3cc(Cl)ccc3Oc3ncccc32)CC1
inhibition in vivo at 20 mg/kg [4]: 0%

pKi [1]: 6.17
-Log Ki [2]: 7.35
-Log Ki [3]: 5.75
SMILES: CN1CCN(C2=Nc3cccnc3Sc3ccc(Cl)cc32)CC1
inhibition in vivo at 20 mg/kg [4]: 100%

pKi [1]: 4.81
-Log Ki [2]: 6.55
-Log Ki [3]: 6.68
SMILES: CN1CCN(C2=Nc3cnccc3Sc3ccccc32)CC1
inhibition in vivo at 20 mg/kg [4]: 0%

-Log Ki [2]: 9.23
SMILES: CN1CCN(C2=Nc3ccccc3Sc3ccc(Cl)cc32)CC1 [CLOTHIAPINE]
ED50 [5]: 0.72 mg/kg
inhibition in vivo at 20 mg/kg [4]: 100%

pKi [1]: 5.97
-Log Ki [2]: 7.35
-Log Ki [3]: 5.86
SMILES: CN1CCN(C2=Nc3cccnc3Oc3ccc(Cl)cc32)CC1
inhibition in vivo at 20 mg/kg [4]: 100%

pKi [1]: 6.12
-Log Ki [2]: 7.01
-Log Ki [3]: 5.42
SMILES: Cc1ccc2c(c1)N=C(N1CCN(C)CC1)c1cccnc1O2
inhibition in vivo at 20 mg/kg [4]: 0%

The remaining lines, values behind:

SMILES: O=C(CCCN1CCC(O)(c2ccc(Cl)cc2)CC1)c1ccc(F)cc1 [HALOPERIDOL]
ED50 [5]: 0.14 mg/kg
inhibition in vivo at 20 mg/kg [4]: 100%

SMILES: CN1CCN(C2=Nc3ccccc3Oc3ncccc32)CC1
pKi [1]: 5.62
-Log Ki [2]: 5.85
-Log Ki [3]: 5.47
inhibition in vivo at 20 mg/kg [4]: 0%

SMILES: CN1CCN(C2=Nc3ccccc3Sc3ncccc32)CC1
pKi [1]: 5.79
-Log Ki [2]: 6.29
-Log Ki [3]: 5.61
inhibition in vivo at 20 mg/kg [4]: 0%

SMILES: CN1CCN(C2=Nc3cc(F)ccc3Cc3ccccc32)CC1 [FLUPERLAPINE]
-Log Ki [2]: 8.41

SMILES: CN1CCN(C2=Nc3ccccc3Nc3ccc(Cl)cc32)CC1 [ISOCLOZAPINE]
ED50 [5]: 1.7 mg/kg

SMILES: CN1CCN(C2=Nc3cc(Cl)ccc3Nc3ccccc32)CC1 [CLOZAPINE]
inhibition in vivo at 20 mg/kg [4]: 0%
